Read-outs that look alike come from different tables or passages of the source.
Legend:
CREB = type: in vivo, mouse; conditions: for CREB shutoff in dorsal hippocampal CA1: 50 mg/kg daily oral, 6 weeks
Experimental: Animals were anesthetized with ketamine/xylazine (Medistar) and transcardially perfused with 0.9% saline followed by 4% PFA. The brains were post-fixed in 4% PFA in PBS overnight, followed by immersion in 0.5 M sucrose for 24 h and then 1M sucrose for another 1 to 2 days or until the brains were sunken down. The brains were snap-frozen and cut into 35 μm thick coronal cryosections (Leica CM3050S, Leica-Microsystems). The sections were blocked in a buffer (0.3% TX-100, 10% NGS in PBS) for 30 min at RT, and incubated with primary antibodies diluted in the blocking solution, overnight at 4° C. Secondary antibodies were applied for 2 h at RT. Sections were counterstained with DAPI and mounted in Mowiol 4-88 (Merck Chemicals). For the detection of Aβ, the heat-based antigen retrieval method was used. For anti-Aβ staining, following permeabilization, brain sections were immersed into […] sodium citrate solution (Fluka, pH=9) for 30 min at 80° C. Imaging of nuclear pCREB/CREB immunoreactivities in cryosections was performed using a Leica TCS SP5 system (Leica-Microsystems). Images were acquired sequentially with a HCX ApoL20×/1.0 water objective, optical zoom 4. Sections were imaged with constant laser/detector settings along the z-axis with 400 nm step in a 512×512 pixel format.
(§1) . For TBA2.1 mice (both sexes), treatment started at the age of 4 weeks. The animals were group housed and force fed for 4 weeks. […] Treatment in 5×FAD male mice started at the age of 12 weeks. Here, animals were single housed right away and given a choice between voluntary and forced feeding. […] During the course of the 7th week of treatment, animals were either subjected to perfusion to obtain their brains for subsequent immunohistochemistry or they were culled to obtained native brains for electrophysiological recordings.
(§2) All quantifications were done within the distal CA1 region of the hippocampus. Fiji/ImageJ software (Schindelin et al., 2012) was used to calculate maximum intensity projection from five optical sections for each channel. CREB and pCREB immunoreactivity of every single nucleus in a 100 μm stretch was measured in arbitrary units of pixel intensity. ROls were defined based on NeuN and DAPI. The neuronal loss was quantified based on NeuN staining (the number of neurons/CA1 length). For the quantification of microglia and astrocytes the number of cells based on overlaid DAPI and Iba-1 or GFAP signal was quantified within the rectangular ROI. Aβ plaques were counted in the region where the neuronal loss was quantified.

TBA2.1 and 5×FAD mice [1] = experiment: Y-maze object recognition short-term memory task; type: in vivo, mouse; conditions: 3 h between training and test, versus vehicle
From the text: as §1
Y-maze Object Recognition short-term memory task was performed according to (Creighton et al., 2019). During training session, two identical objects (3D printed rectangle) were placed at the end of arms B and C and the animal was left to explore both objects for 10 min. In order to assess short-term memory, retrieval performance was tested 3 h after training with one of the familiar objects replaced by a novel one (wooden cube). The mice were placed in the arena, and had 5 min to explore both objects. During both sessions the time animals explored the objects was scored, and a discrimination index was calculated, in the same manner as for the novel object recognition test.

pCREB [2] = experiment: pCREB in motor neurons differentiated from hiPSC (ALS model); type: cell-based, human; conditions: hiPSC-derived motor neurons, treated at day in vitro 56
TBA2.1 and 5×FAD mice [3] = experiment: Acute hippocampal slices, CA1-LTP recordings; type: ex vivo, mouse; conditions: for basal synaptic transmission: bath application
Experimental: The 350 μm thick hippocampal slices were prepared according to a previously described protocol (Grochowska et al., 2017). Briefly, hippocampal slices were incubated in bubbling 95% 02, 5% CO2 ASCF solution for 2 h at 31+/−1° C. Field excitatory postsynaptic potentials (fEPSPs) were measured in stratum radiatum after stimulation of CA1 Schaffer collateral fibers with ACSF glass capillary microelectrodes (3-5 MΩ). fEPSPs were amplified by Extracellular Amplifier (EXT-02B, npi, Germany) and digitized at a sample frequency of 5 kHz by Digidata 1201 plus AD/Da converter (CED, UK). The strength of stimuli was adjusted to 25-35% of the maximum fEPSP slope values. Single stimuli were applied at 0.0333 Hz and averaged every 5 min. Stable baseline recordings were followed by tetanisation with 3×1 s stimulus trains at 100 Hz with a 10 min inter-train interval.
as §1

TBA2.1 mice = experiment: Neuronal loss (NeuN-positive cells) in CA1 after oral Nitarsone; type: in vivo, mouse; conditions: versus vehicle-treated littermates
Experimental: Animals were anesthetized with ketamine/xylazine (Medistar) and transcardially perfused with 0.9% saline followed by 4% PFA. The brains were post-fixed in 4% PFA in PBS overnight, followed by immersion in 0.5 M sucrose for 24 h and then 1M sucrose for another 1 to 2 days or until the brains were sunken down. The brains were snap-frozen and cut into 35 μm thick coronal cryosections (Leica CM3050S, Leica-Microsystems). The sections were blocked in a buffer (0.3% TX-100, 10% NGS in PBS) for 30 min at RT, and incubated with primary antibodies diluted in the blocking solution, overnight at 4° C. Secondary antibodies were applied for 2 h at RT. Sections were counterstained with DAPI and mounted in Mowiol 4-88 (Merck Chemicals). For the detection of Aβ, the heat-based antigen retrieval method was used. […]
as §2, with “Fiji/ImageJ software (Schindelin et al., 2012) was used to calculate maximum intensity projection from five optical sections for each channel.” left out, “ROls were defined based on NeuN and DAPI.” left out

pCREB [4] = experiment: pCREB in primary cortical cultures overexpressing poly(GA) aggregates (ALS model); type: cell-based, rodent; conditions: 5 µM nitarsone, 48 hours
[5] = estimated life-long consumption of turkey meat; cited from earlier work

Q: Which “CREB shutoff in dorsal hippocampal CA1” value (CREB; 5×FAD mice) does the source give for `O=[N+]([O-])c1ccc([As](=O)(O)O)cc1` [Nitarsone, (4-nitrophenyl) arsonic acid] here?
A: Its value is “effectively prevented CREB shutoff”.

Q: What about the “CREB immunoreactivity in NeuN positive cells in CA1” value (CREB; 5×FAD mice, 18 weeks old) of the same compound?
A: Its value is “rescues the reduction of CREB immunoreactivity”.

Q: What about the “CREB shutoff in dorsal hippocampal CA1” value (CREB; TBA2.1 mice) of the same compound?
A: Its value is “effectively prevented CREB shutoff”.

Q: And the “CREB immunoreactivity in NeuN positive cells in CA1” value (CREB; TBA2.1 mice, 11 weeks old)?
A: Its value is “rescues the reduction of CREB immunoreactivity”.

Q: And the “discrimination performance, Y-maze object recognition” value (TBA2.1 and 5×FAD mice [1]; 5×FAD mice)?
A: Its value is “improved discrimination performance”.

Q: What about the “discrimination performance, Y-maze object recognition” value (TBA2.1 and 5×FAD mice [1]; TBA2.1 mice) of the same compound?
A: The value was “improved discrimination performance”.

Q: What about the “impairment of CREB function” value (pCREB [2]) of the same compound?
A: The value was “rescues the impairment of CREB function”.

Q: And the basal synaptic transmission (TBA2.1 and 5×FAD mice [3]; 5×FAD mice)?
A: The basal synaptic transmission was “not affected”.

Q: What about the basal synaptic transmission (TBA2.1 and 5×FAD mice [3]; TBA2.1 mice) of the same compound?
A: The basal synaptic transmission was “not affected”.

Q: And the “late-phase LTP, fEPSP slope in the last 30 minutes of recordings” value (TBA2.1 and 5×FAD mice [3]; slices of Nitarsone-fed 5×FAD mice, postnatal week 19)?
A: The value was “rescued”.

Q: What about the “late-phase LTP, fEPSP slope in the last 30 minutes of recordings” value (TBA2.1 and 5×FAD mice [3]; slices of Nitarsone-fed TBA2.1 mice, postnatal week 11) of the same compound?
A: Its value is “rescued”.

Q: And the “early neuronal cell loss” value (TBA2.1 mice)?
A: Its value is “reduced”.

Q: What about the pCREB nuclear immunoreactivity (pCREB [4]; control cells (poly (GA)-negative)) of the same compound?
A: Its pCREB nuclear immunoreactivity is “do not display any change”.

Q: And the “poly (GA)-induced decrease in pCREB nuclear immunoreactivity” value (pCREB [4]; poly-(GA) 175-EGFP-transduced cells)?
A: The value was “completely rescued”.

Q: What about the “increased lifetime risk of developing cancer” value [5] of the same compound?
A: Its value is 0.00031%.
